Experimental data taken from paper PMC10386649, “New Acetamide-Sulfonamide-Containing Scaffolds: Antiurease Activity Screening, Structure-Activity Relationship, Kinetics Mechanism, Molecular Docking, and MD Simulation Studies” (Molecules, 2023).
Where two headings read alike, the source gives them in different places.

What was measured:
jack bean urease = jack bean urease (Canavalia ensiformis, UniProt P07374); assay: biochemical; format: biochemical; conditions: for % Inhibition (urease): value in parentheses beside IC50; for urease inhibition (in words): qualitative statement
Chain of jack bean urease (P07374 whole entry, looked up): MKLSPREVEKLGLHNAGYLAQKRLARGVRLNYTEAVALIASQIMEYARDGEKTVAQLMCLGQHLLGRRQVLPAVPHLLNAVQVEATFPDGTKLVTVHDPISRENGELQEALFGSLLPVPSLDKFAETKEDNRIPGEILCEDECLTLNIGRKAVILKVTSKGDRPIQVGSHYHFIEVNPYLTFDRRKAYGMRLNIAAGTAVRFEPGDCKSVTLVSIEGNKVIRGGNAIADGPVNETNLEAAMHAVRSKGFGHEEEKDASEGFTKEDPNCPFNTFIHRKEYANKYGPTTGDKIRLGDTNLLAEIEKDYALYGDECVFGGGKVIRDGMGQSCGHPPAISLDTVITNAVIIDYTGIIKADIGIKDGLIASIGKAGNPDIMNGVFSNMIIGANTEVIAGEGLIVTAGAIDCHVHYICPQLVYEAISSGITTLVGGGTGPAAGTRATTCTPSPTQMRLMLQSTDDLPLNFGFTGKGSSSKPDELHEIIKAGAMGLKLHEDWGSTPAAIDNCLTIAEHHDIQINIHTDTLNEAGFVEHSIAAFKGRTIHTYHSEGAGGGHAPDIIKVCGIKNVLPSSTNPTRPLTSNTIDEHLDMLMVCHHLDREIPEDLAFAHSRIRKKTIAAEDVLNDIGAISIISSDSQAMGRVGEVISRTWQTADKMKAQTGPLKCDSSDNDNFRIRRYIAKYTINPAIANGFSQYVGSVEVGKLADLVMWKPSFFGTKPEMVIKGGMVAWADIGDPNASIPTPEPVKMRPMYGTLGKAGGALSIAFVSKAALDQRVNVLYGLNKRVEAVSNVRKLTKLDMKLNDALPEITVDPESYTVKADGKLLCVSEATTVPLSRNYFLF
Experimental: Briefly, DMSO was used to dissolve the synthesized conjugates (inhibitors, 250–0.49 µM) and the reference urease inhibitor (thiourea). Each falcon tube contained the respective inhibitor (20 µL), buffer (K2HPO4, 100 µL, 50 mM, pH = 6.8), and jack bean urease (20 µL); each tube was mixed well; and the mixtures were incubated for 30 min at 37 °C. Each tube received 400 µL of urea (20 mM) as a substrate, which was then incubated for 10 min at the same temperature. Afterward, each tube received 400 µL of phenol reagent and 750 µL of alkali reagent containing 0.1% active chlorine and was left at 37 °C for 50 min. Following the use of a spectrophotometer (Labdex, LX210DS, London, UK) to measure absorbance of the mixture in each tube at 595 nm, Equation (1) below was used to compute the percentage of urease inhibition: (1) % Urease inhibition=1−T/C×100 where, T and C are the absorbance of each well containing inhibitor and blank, respectively. The results are presented as mean ± SEM. Using a regression equation where 50% inhibition was seen, the IC50 values of each inhibitor were determined.

urease = urease (Canavalia ensiformis, UniProt P07374); assay: biochemical; format: biochemical, jack bean; conditions: for Mode of Inhibition: Lineweaver–Burk plot, inhibitor 0–20 µM, urea 0.5–4.0 mM; for Vmax (app): intercept, the maximum rate at 20 µM of inhibitor concentration
Chain of urease (P07374 whole entry, looked up): as above
Experimental: The kinetics studies were performed by using five different concentrations (0.0, 5.0, 10.0, 15.0, and 20.0 µM) of each conjugate while using four different concentrations of urea (0.5, 1.0, 2.0, and 4.0) as substrate.
The Lineweaver–Burk plot is a powerful tool for analyzing enzyme kinetics and determining the mode of inhibition of an enzyme by a particular conjugate. […] In a Lineweaver–Burk plot, competitive inhibition is characterized by a change in the slope of the line (Km, also called the Michaelis constant), whereas the intercept remains the same (Vmax, the maximum rate). […] The inhibition constant (Ki) value of each conjugate was also calculated by plotting the slope of each line vs. different concentrations of each conjugate, also called secondary Lineweaver–Burk plots.
When there is mixed-type inhibition, the enzyme–substrate complex is bound by the inhibitor molecule, which prevents the reaction from happening, and increasing the substrate concentration will not remove this kind of inhibition. In a Lineweaver–Burk plot, mixed-type inhibition is characterized by a change in both the slope (Km) and the intercept of the line (Vmax).
With a few minor modifications, the urease inhibition experiment was carried out as described in our past research [3, 4, 5]. Briefly, DMSO was used to dissolve the synthesized conjugates (inhibitors, 250–0.49 µM) and the reference urease inhibitor (thiourea). Each falcon tube contained the respective inhibitor (20 µL), buffer (K2HPO4, 100 µL, 50 mM, pH = 6.8), and jack bean urease (20 µL); each tube was mixed well; and the mixtures were incubated for 30 min at 37 °C. Each tube received 400 µL of urea (20 mM) as a substrate, which was then incubated for 10 min at the same temperature. Afterward, each tube received 400 µL of phenol reagent and 750 µL of alkali reagent containing 0.1% active chlorine and was left at 37 °C for 50 min. Following the use of a spectrophotometer (Labdex, LX210DS, London, UK) to measure absorbance of the mixture in each tube at 595 nm, Equation (1) below was used to compute the percentage of urease inhibition: (1) % Urease inhibition=1−T/C×100 where, T and C are the absorbance of each well containing inhibitor and blank, respectively. The results are presented as mean ± SEM. Using a regression equation where 50% inhibition was seen, the IC50 values of each inhibitor were determined. Each inhibitor’s binding mechanism was tested at various doses (0–20 µM) for kinetics investigations. Urea was used as a substrate in different concentrations (0.5–4.0 mM) to determine the mode of inhibition of the inhibitors, including whether they acted as uncompetitive, mixed (non-competitive), or competitive. GraphPad PRISM 7.0 was used to create Lineweaver–Burk plots, which were then used to calculate the values of Km (app), Vmax (app), and Ki (inhibition constant).

Compound | IC50 (jack bean urease) [µM] | % Inhibition (urease) (jack bean urease; jack bean urease) [%] | melting point [°C] | Ki (urease) [µM] | Mode of Inhibition (urease) | Vmax (app) (urease) [µM/min] | urease inhibition (in words) (jack bean urease) | IC50 (jack bean urease; jack bean urease, urea substrate, pH 6.8, 37 °C, mean ± SEM, read-out: IC50 (µM), Mean ± SEM) [µM] | Ki (urease; from secondary Lineweaver–Burk plots, read-out: Ki (inhibition constant)) [µM] | Km (urease; slope of the line (Michaelis constant) at 20 µM of inhibitor concentration, read-out: Km (app)) [µM]
CC(C)Cc1ccc(C(C)C(=O)Nc2ccc(S(N)(=O)=O)cc2)cc1 (stereo not drawn) [Conjugate 4, 2-(4-Isobutylphenyl)-N-(4-sulfamoylphenyl)propanamide] | 14.26 ± 0.14 | 84.2 | 147 to 150 | 8.2 | Mixed | 3.64 |  |  |  | 
Cc1noc(NS(=O)(=O)c2ccc(NC(=O)C(C)c3ccc(CC(C)C)cc3)cc2)c1C (stereo not drawn) [Conjugate 5, N-(4-(N-(3,4-Dimethylisoxazol-5-yl)sulfamoyl)phenyl)-2-(4-isobutylphenyl)propanamide] | 23.3 ± 0.41 | 84.0 |  |  |  |  |  |  |  | 
CC(C)Cc1ccc(C(C)C(=O)Nc2ccc(S(=O)(=O)Nc3nccs3)cc2)cc1 (stereo not drawn) [Conjugate 6, 2-(4-Isobutylphenyl)-N-(4-(N-(thiazol-2-yl)sulfamoyl)phenyl)propanamide] | 9.95 ± 0.14 | 90.6 | 184 to 185 | 0.17 | Competitive | 1.39 |  |  |  | 
CC(C)Cc1ccc(C(C)C(=O)Nc2ccc(S(=O)(=O)Nc3ncccn3)cc2)cc1 (stereo not drawn) [Conjugate 7, 2-(4-Isobutylphenyl)-N-(4-(N-(pyrimidin-2-yl)sulfamoyl)phenyl)propanamide] | 50.2 ± 1.24 | 71.6 | 171 to 173 |  |  |  | moderate inhibition |  |  | 
Cc1ccnc(NS(=O)(=O)c2ccc(NC(=O)C(C)c3ccc(CC(C)C)cc3)cc2)n1 (stereo not drawn) [Conjugate 8, 2-(4-Isobutylphenyl)-N-(4-(N-(4-methylpyrimidin-2yl)sulfamoyl)phenyl)propanamide] | 12.4 ± 0.54 | 87.7 | 152 to 154 | 3.01 | Mixed | 3.0 |  |  |  | 
Cc1cc(NS(=O)(=O)c2ccc(NC(=O)C(C)c3ccc(CC(C)C)cc3)cc2)no1 (stereo not drawn) [Conjugate 9, 2-(4-Isobutylphenyl)-N-(4-(N-(5-methylisoxazol-3-yl)sulfamoyl)phenyl)propanamide] | 39.9 ± 1.17 | 76.7 |  |  |  |  | moderate inhibition |  |  | 
CC(=O)NS(=O)(=O)c1ccc(NC(=O)C(C)c2ccc(CC(C)C)cc2)cc1 (stereo not drawn) [Conjugate 10, N-(4-(N-Acetylsulfamoyl)phenyl)-2-(4-isobutylphenyl)propanamide] | 10.3 ± 0.11 | 88.9 | 152 to 155 | 2.62 | Mixed | 1.04 |  |  |  | 
CC(C)Cc1ccc(C(C)C(=O)Nc2ccc(S(=O)(=O)NC(=N)N)cc2)cc1 (stereo not drawn) [Conjugate 11, N-(4-(N-Carbamimidoylsulfamoyl)phenyl)-2-(4-isobutylphenyl)propanamide] | 44.5 ± 1.41 | 78.7 | 138 to 139 |  |  |  | moderate inhibition |  |  | 
CC(C(=O)Nc1ccc(S(N)(=O)=O)cc1)c1ccc(-c2ccccc2)c(F)c1 (stereo not drawn) [Conjugate 12, 2-(2-Fluoro-[1,1′-biphenyl]-4-yl)-N-(4-sulfamoylphenyl)propanamide] | 24.92 ± 0.24 | 82.1 | 147 to 150 |  |  |  |  |  |  | 
Cc1noc(NS(=O)(=O)c2ccc(NC(=O)C(C)c3ccc(-c4ccccc4)c(F)c3)cc2)c1C (stereo not drawn) [Conjugate 13, N-(4-(N-(3,4-Dimethylisoxazol-5-yl)sulfamoyl)phenyl)-2-(2-fluoro-[1,1′-biphenyl]-4-yl)propanamide] | 35.3 ± 0.21 | 84.6 | 128 to 130 |  |  |  |  |  |  | 
CC(C(=O)Nc1ccc(S(=O)(=O)Nc2nccs2)cc1)c1ccc(-c2ccccc2)c(F)c1 (stereo not drawn) [Conjugate 14, 2-(2-Fluoro-[1,1′-biphenyl]-4-yl)-N-(4-(N-(thiazol-2-yl)sulfamoyl)phenyl)propanamide] | 63.4 ± 1.15 | 60.4 | 137 to 140 |  |  |  | moderate inhibition |  |  | 
CC(C(=O)Nc1ccc(S(=O)(=O)Nc2ncccn2)cc1)c1ccc(-c2ccccc2)c(F)c1 (stereo not drawn) [Conjugate 15, 2-(2-Fluoro-[1,1′-biphenyl]-4-yl)-N-(4-(N-(pyrimidin-2-yl)sulfamoyl)phenyl)propanamide] | 16.7 ± 0.23 | 84.1 | 155 to 158 | 7.95 | Competitive | 1.89 |  |  |  | 
Cc1ccnc(NS(=O)(=O)c2ccc(NC(=O)C(C)c3ccc(-c4ccccc4)c(F)c3)cc2)n1 (stereo not drawn) [Conjugate 16, 2-(2-Fluoro-[1,1′-biphenyl]-4-yl)-N-(4-(N-(4-methylpyrimidin-2-yl)sulfamoyl)phenyl)propanamide] | 17.5 ± 0.76 | 86.1 |  | 1.3 | Mixed | 1.01 |  |  |  | 
Cc1cc(NS(=O)(=O)c2ccc(NC(=O)C(C)c3ccc(-c4ccccc4)c(F)c3)cc2)no1 (stereo not drawn) [Conjugate 17, 2-(2-Fluoro-[1,1′-biphenyl]-4-yl)-N-(4-(N-(5-methylisoxazol-3-yl)sulfamoyl)phenyl)propanamide] | 13.39 ± 0.11 | 86.1 |  | 10.4 | Competitive | 1.56 |  |  |  | 
CC(=O)NS(=O)(=O)c1ccc(NC(=O)C(C)c2ccc(-c3ccccc3)c(F)c2)cc1 (stereo not drawn) [Conjugate 18, N-(4-(N-Acetylsulfamoyl)phenyl)-2-(2-fluoro-[1,1′-biphenyl]-4-yl)propanamide] | 14.8 ± 0.16 | 87.1 | 187 to 190 | 4.11 | Mixed | 1.02 |  |  |  | 
CC(C(=O)Nc1ccc(S(=O)(=O)NC(=N)N)cc1)c1ccc(-c2ccccc2)c(F)c1 (stereo not drawn) [Conjugate 19, N-(4-(N-Carbamimidoylsulfamoyl)phenyl)-2-(2-fluoro-[1,1′-biphenyl]-4-yl)propanamide] | 33.83 ± 0.18 | 83.8 | 163 to 165 |  |  |  |  |  |  | 
NC(N)=S [Thiourea, reference compound] |  | 92.3 |  |  | Competitive | 18.61 |  | 22.6 ± 0.23 | 18.2 | 2180
